For assay [1], the target named is T1, Urotensin-2 receptor (Homo sapiens) (UniProt Q9UKP6).
T1 sequence (whole entry): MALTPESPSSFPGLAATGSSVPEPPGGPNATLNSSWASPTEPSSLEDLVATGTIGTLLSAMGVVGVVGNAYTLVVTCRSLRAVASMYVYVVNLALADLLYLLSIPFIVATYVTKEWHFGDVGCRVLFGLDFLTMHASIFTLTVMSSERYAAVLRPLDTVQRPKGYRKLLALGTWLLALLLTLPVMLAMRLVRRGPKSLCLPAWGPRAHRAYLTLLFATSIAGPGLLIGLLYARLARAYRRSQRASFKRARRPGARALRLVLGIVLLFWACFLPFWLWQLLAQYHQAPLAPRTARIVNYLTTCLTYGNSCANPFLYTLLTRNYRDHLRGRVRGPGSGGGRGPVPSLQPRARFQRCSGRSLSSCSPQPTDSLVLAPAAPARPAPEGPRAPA
Briefly: Modulation of human UTR stably expressed in HEK293 cells assessed as increase in Ca2+ level at 0.1 to 100 nM by Fura 2-AM dye based calcium mobilization assay. The settings on record: filed as modulator, dose 0.1-100 nM. It is filed as functional, cell-based. Background: Calcium assays in cells follow changes in intracellular calcium, usually with a dye or a luminescent sensor.

For assay [2], the system named is Aortic ring. Briefly: Induction of contraction in Albino Wistar rat aortic ring assessed as Emax of U-II(4-11) at 1 uM incubated for 30 mins in presence of U-II(4-11) (reference value: 159.8 +/- 7.3 dyne/mg). The assay is classed as functional, Aorta. To be noted: 0.5 h.
Assay [3] concerns Aortic ring. In words: Induction of contraction in Albino Wistar rat aortic ring assessed as Emax of [Ala1]U-II at 0.1 uM incubated for 30 mins in presence of [Ala1]U-II (reference value: 323 +/- 30.45 dyne/mg). It is filed as functional, Aorta. To be noted: 0.5 h.
Assay [4] deals with Aortic ring. In words: Induction of contraction in Albino Wistar rat aortic ring assessed as Emax of hU-II at 10 uM incubated for 30 mins in presence of hU-II (reference value: 214.5 +/- 10.51 dyne/mg). It is filed as functional, Aorta. The settings on record: 0.5 h.
Assay [5] deals with Aortic ring. Briefly: Induction of contraction in Albino Wistar rat aortic ring assessed as Emax of [Ala1]U-II at 10 uM incubated for 30 mins in presence of [Ala1]U-II (reference value: 308.1 +/- 21.4 dyne/mg). The assay is classed as functional, Aorta. To be noted: 0.5 h.
Assay [6] has as its system Aortic ring. In words: Induction of contraction in Albino Wistar rat aortic ring assessed as Emax of hU-II at 0.1 uM incubated for 30 mins in presence of hU-II (reference value: 251.4 +/- 15.43 dyne/mg). The assay is classed as functional, Aorta. To be noted: 0.5 h.
Assay [7] concerns Aortic ring. Briefly: Induction of contraction in Albino Wistar rat aortic ring assessed as Emax of U-II(4-11) at 0.1 uM incubated for 30 mins in presence of U-II(4-11) (reference value: 159.8 +/- 7.39 dyne/mg). It is filed as functional, Aorta. To be noted: 0.5 h.
Assay [8] relates to Aortic ring. Briefly: Induction of contraction in Albino Wistar rat aortic ring assessed as Emax of U-II(4-11) at 10 uM incubated for 30 mins in presence of U-II(4-11) (reference value: 152.4 +/- 5.1 dyne/mg). It is filed as functional, Aorta. To be noted: 0.5 h.
Assay [9] has as its system Aortic ring. Briefly: Induction of contraction in Albino Wistar rat aortic ring at 1 to 30 nM. The assay is classed as functional, tissue-based. To be noted: Aorta, dose 1-30 nM.
For assay [10], the system named is Aortic ring. Briefly: Induction of contraction in Albino Wistar rat aortic ring assessed as Emax of [Ala1]U-II at 1 uM incubated for 30 mins in presence of [Ala1]U-II (reference value: 220.3 +/- 17.48 dyne/mg). The assay is classed as functional, Aorta. The settings on record: 0.5 h.
Assay [11] has as its system Aortic ring. In words: Induction of contraction in Albino Wistar rat aortic ring assessed as Emax of hU-II at 1 uM incubated for 30 mins in presence of hU-II (reference value: 224.8 +/- 11.71 dyne/mg). It is filed as functional, Aorta. To be noted: 0.5 h.
Assay [12] deals with Aortic ring. In words: Induction of contraction in Albino Wistar rat aortic ring assessed as Emax of hU-II at 10 uM incubated for 30 mins in presence of hU-II (reference value: 238.4 +/- 9.53 dyne/mg). The assay is classed as functional, Aorta. The settings on record: 0.5 h.
Assay [13] relates to Aortic ring. Briefly: Induction of contraction in Albino Wistar rat aortic ring assessed as Emax of hU-II at 0.1 uM incubated for 30 mins in presence of hU-II (reference value: 224.8 +/- 11.71 dyne/mg). It is filed as functional, Aorta. The settings on record: 0.5 h.
For assay [14], the system named is Aortic ring. Briefly: Induction of contraction in Albino Wistar rat aortic ring assessed as Emax of [Ala1]U-II at 0.1 uM incubated for 30 mins in presence of [Ala1]U-II (reference value: 308.1 +/- 21.4 dyne/mg). To be noted: 0.5 h. The assay is classed as functional, Aorta.
Assay [15] concerns Aortic ring. Briefly: Induction of contraction in Albino Wistar rat aortic ring assessed as Emax of [Ala1]U-II at 1 uM incubated for 30 mins in presence of [Ala1]U-II (reference value: 153.3 +/- 10.75 dyne/mg). It is filed as functional, Aorta. To be noted: 0.5 h.
The subject of assay [16] is Aortic ring. In words: Induction of contraction in Albino Wistar rat aortic ring assessed as Emax of [Ala1]U-II at 10 uM incubated for 30 mins in presence of [Ala1]U-II (reference value: 391.6 +/- 38.83 dyne/mg). The assay is classed as functional, Aorta. The settings on record: 0.5 h.
The subject of assay [17] is Aortic ring. In words: Induction of contraction in Albino Wistar rat aortic ring assessed as Emax of hU-II at 1 uM incubated for 30 mins in presence of hU-II (reference value: 214.5 +/- 10.51 dyne/mg). The assay is classed as functional, Aorta. To be noted: 0.5 h.

Experimental findings from ChEMBL document CHEMBL5550214, “Expanding Structure-Activity Relationships of Human Urotensin II Peptide Analogues: A Proposed Key Role of the N-Terminal Region for Novel Urotensin II Receptor Modulators” (J Med Chem, 2024) are described below.

The source made the active and inactive calls. The calls are words filed in the database; no cut-off is given here.

In the case of `CC(C)[C@H](NC(=O)[C@@H]1CSSC(C)(C)[C@H](NC(=O)[C@H](CC(=O)O)NC(=O)[C@@H]2CCCN2C(=O)[C@@H](NC(=O)[C@@H](N)CCC(N)=O)[C@@H](C)O)C(=O)N[C@@H](Cc2ccccc2)C(=O)N[C@H](Cc2c[nH]c3ccccc23)C(=O)N[C@@H](CCCN)C(=O)N[C@@H](Cc2ccc(O)cc2)C(=O)N1)C(=O)O`, the result in assay [1] was Active. Moreover, the Emax in the assay with Aortic ring [2] was determined as 215.7 dyn/mg; in the assay on Aortic ring [3] it was 46.4 dyn/mg; with Aortic ring [4], 245.7 dyn/mg; in the assay on Aortic ring [5], 218.8 dyn/mg; in the assay with Aortic ring [6] it was 507.7 dyn/mg; in the assay on Aortic ring [7], 265.4 dyn/mg. For the same compound, the results for the Emax in the assay on Aortic ring [8], in the assay with Aortic ring [10] and in the assay on Aortic ring [11] were 164.2 dyn/mg, 295.9 dyn/mg and 336.6 dyn/mg, respectively. Further, the result with Aortic ring [9] was inactive.
On to `CC(C)[C@H](NC(=O)[C@@H]1CSSC(C)(C)[C@H](NC(=O)[C@H](CC(=O)O)NC(=O)[C@@H]2CCCN2C(=O)[C@@H](NC(=O)[C@@H](N)CCC(=O)O)[C@@H](C)O)C(=O)N[C@@H](Cc2ccccc2)C(=O)N[C@H](Cc2c[nH]c3ccccc23)C(=O)N[C@@H](CCCN)C(=O)N[C@@H](Cc2ccc(O)cc2)C(=O)N1)C(=O)O`, for which the outcome in assay [1] was Active. For the same compound, the Emax was determined as 327 dyn/mg in the assay with Aortic ring [12]; 251.6 dyn/mg with Aortic ring [13]; 166.6 dyn/mg with Aortic ring [2]; 216.19 dyn/mg in the assay on Aortic ring [14]; 223.4 dyn/mg in the assay on Aortic ring [7]; 231 dyn/mg in the assay with Aortic ring [8]. Further, the Emax turned out to be 146.8 dyn/mg in the assay with Aortic ring [15], 727.7 dyn/mg with Aortic ring [16] and 143.5 dyn/mg in the assay with Aortic ring [17]. The outcome in the assay with Aortic ring [9] was inactive.
